Laboratory results reported in article PMC7134380 (Journal of the American Chemical Society, 2020).

Biological target: T1, human ornithine aminotransferase (hOAT) (Homo sapiens, UniProt P04181)
T1 sequence (P04181 26-439 limits assumed): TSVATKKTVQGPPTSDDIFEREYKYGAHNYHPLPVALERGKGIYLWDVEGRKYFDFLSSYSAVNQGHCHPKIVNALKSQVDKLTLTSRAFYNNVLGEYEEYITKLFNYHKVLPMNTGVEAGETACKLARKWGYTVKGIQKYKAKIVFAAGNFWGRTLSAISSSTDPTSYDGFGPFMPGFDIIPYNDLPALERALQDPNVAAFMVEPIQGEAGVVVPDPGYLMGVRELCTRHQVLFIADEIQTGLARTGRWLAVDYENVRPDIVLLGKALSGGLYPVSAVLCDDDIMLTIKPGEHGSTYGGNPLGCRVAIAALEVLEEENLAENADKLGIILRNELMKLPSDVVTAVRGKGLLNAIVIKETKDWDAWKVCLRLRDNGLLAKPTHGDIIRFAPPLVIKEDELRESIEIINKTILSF
Experiment: time-dependent inactivation kinetics
Type: biochemical
Conditions: read-out: hOAT / KI; covalent; mechanism-based inactivator (kinact/KI analysis)

Question: With `N[C@H]1C[C@@H](C(=O)O)C[C@@H]1F` [compound 1, (1R,3S,4S)-3-amino-4-fluorocyclopentane-1-carboxylic acid] as the compound, how does the KI (inactivation) read?
Answer: 1400 ± 41 µM
